Measured values from patent publication US20180244653A1, “SELECTIVE ALPHA-7 NICOTINIC RECEPTOR AGONISTS AND METHODS FOR MAKING AND USING THEM” (THE REGENTS OF THE UNIVERSITY OF CALIFORNIA, priority 2015, published 2018).
“Also recorded” adds a separate entry of the source. Where two headings read alike, the source gives them in different places.

Columns and labels:
α4β2-nAChRs [1] = biological target: T1, α4β2-nAChRs (Homo sapiens, UniProt P17787+P43681); test: Intact cell competitive radioligand binding assay ([3H]-(±)-epibatidine, SPA), LGIC-CNiFERs; conditions: 10 μM, more than 50% radioligand displacement
T1 construct: expressed in transfected cells; host or cells: HEKtsA201 cells co-expressing TN-XXL

[2] = biological target: α7/5HT3A chimera receptor (hα7/m5HT3A), used for α7-nAChRs (UniProt P23979+P36544, M226I/T225I); test: as above
5HT3A receptors [3] = biological target: T2, 5HT3A receptors (Mus musculus, UniProt P23979); test: FRET functional assay (agonist/antagonist) using LGIC-CNiFERs; assay type: cell-based; conditions: for EC50: read-out: Agonist EC50 ± SD, 5HT3A
T2 construct: expressed in transfected cells; host or cells: HEK293 cells co-expressing TN-XXL
T2 sequence (P23979 24-489): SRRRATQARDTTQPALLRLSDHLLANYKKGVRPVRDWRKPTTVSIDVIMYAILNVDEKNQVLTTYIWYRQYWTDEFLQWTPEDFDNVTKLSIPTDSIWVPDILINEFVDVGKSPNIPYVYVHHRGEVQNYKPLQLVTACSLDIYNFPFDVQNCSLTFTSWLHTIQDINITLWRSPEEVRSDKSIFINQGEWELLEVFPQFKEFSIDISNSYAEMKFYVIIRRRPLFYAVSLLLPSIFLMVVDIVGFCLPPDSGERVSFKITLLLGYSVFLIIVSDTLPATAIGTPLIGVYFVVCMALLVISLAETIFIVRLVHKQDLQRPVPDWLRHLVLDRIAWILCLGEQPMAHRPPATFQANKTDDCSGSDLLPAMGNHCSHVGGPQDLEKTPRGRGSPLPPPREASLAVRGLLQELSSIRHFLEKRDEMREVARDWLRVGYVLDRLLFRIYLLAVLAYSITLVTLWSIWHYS
Experimental: (§1) Initially, the agonist properties of tested compounds were assessed directly. […] All α7-nAChR functional assays were performed in the presence of PNU-120596, an α7-nAChR positive allosteric modulator (PAM), to increase signal and delay the sensitization state of α7-nAChRs enabling the measurement of more prolonged FRET signals.^29 Compounds having agonist responses of >0.20 were determined for EC50, and compounds having inhibition fraction of >0.50 were determined for KA.^25 EC50>13.3 μM and KA>10 μM which are a screening concentration for agonist and antagonist, respectively were reported compounds not taken for further in the screening of receptor occupation and responses.
(§2) Agonist and antagonist elicited responses were characterized using the above CNiFER cell expressing Cys-loop ligand-gated ion channel (LGIC) receptors. […] A 96-well black, clear-bottom microplate (Greiner bio-one, Germany) was coated with poly-D-lysine (Sigma-Aldrich, St. Louis, Mo.) 50 μL/well for 30 min and washed out with Phosphate-Buffered Saline (PBS) (Corning, Cellgro, Manassas, Va.) before plating the cells. After plating and incubation at 37° C. for 1 day, the media was replaced with 100 μL of artificial cerebrospinal fluid (aCSF: 121 mM NaCl, 5 mM KCl, 26 mM NaHCO3, 1.2 mM NaH2PO4H2O, 10 mM glucose, 2.4 mM CaCl2, 1.3 mM MgSO4, 5 mM HEPES, pH 7.4) for 4032 and 5HT3A receptors, whereas 10 μM PNU-120596 (Tocris Bioscience, Bristol, UK) in aCSF with 30 min incubation at 37° C. was used for α7-nAChR. The tested compounds were prepared in aCSF for all receptors except α7-nAChR, where 10 μM PNU-120596, a positive allosteric modulator (PAM) was used. The prepared compounds were added in a separate 96-well polypropylene plate (Costar, Corning, N.Y.). Experiments were conducted at 37° C. using 436-nm excitation. Emitted light was collected at 485 nm and 528 nm. Basal fluorescence was recorded for 30 s, followed by addition of 50 μL of ligand (first addition). Measurements were made at 3.84 s intervals for 2 min to measure the agonistic effect. […] Agonist and antagonist properties were sequentially screened at the final concentration of 13.3 and 10 μM, respectively, which differed from the screening concentration from intact cell binding assay (10 μM).

α4β2-nAChRs [4] = biological target: T1, α4β2-nAChRs; test: as above; assay type: cell-based; conditions: for Functional properties at α4β2-nAChRs (agonist / antagonist, type): functional screening and characterization
Experimental: as §1, §2

α7-nAChRs = biological target: T3, α7-nAChRs (Homo sapiens, UniProt P36544); test: as above; assay type: cell-based; conditions: for EC50: in presence of 10 μM PNU-120596, * partial agonist, >10 = did not pass initial screen, read-out: Agonist EC50 ± SD, α7
T3 construct: expressed in transfected cells; host or cells: HEKtsA201 cells co-expressing TN-XXL
Experimental: as §1, §2

5HT3A receptors [5] = biological target: T2, 5HT3A receptors; test: Intact cell competitive radioligand binding assay ([3H]-granisetron, SPA), LGIC-CNiFERs; conditions: 10 μM, more than 50% radioligand displacement
[6] = tested on: physiologically induced amnesia mice; test: ORT with 24 h time delay (natural memory loss); assay type: in vivo; conditions: 24 h delay; i.p.
Experimental: Both compounds were further evaluated on a physiologic amnesic model by using ORT with 24 h time delay to induce natural memory loss in mice. The appropriate time delay causing amnesia was initially selected by varying delay times (24, 48, and 72 h) between sample and test phase that have identical and different objects, respectively. […] Therefore, 24 h was used as the time delay between sample and test phase.
FIG. 27 illustrates exploration time to familiar (F) and novel (N) objects in test phase of ORT following a time delay. Each mouse was allowed to explore an open field apparatus for 5 min in a habituation phase one day before a sample phase. In the test day, vehicle (SH) and test compounds IND8, QND8 and PNU were injected 1 h before measurement of exploration time. Each mouse was allowed to explore 2 identical objects in the sample phase for 5 min. On the next day (24 h), one of the objects was changed to a new one and the mouse was allowed to explore these objects for 5 min. The exploration time of these objects was recorded. Data are presented as means±SE, n=6-8 mice/group. **p<0.01, ***p<0.001 vs exploration time of familiar object, paired student's t-test.
The DI was calculated and compared with the control group to evaluate IND8, QND8, and PNU-282987 enhancement of cognitive function. Data are shown in FIG. 28, which illustrates discrimination index (TN−TF/TN+TF) of each compound in the test phase of ORT with time delay protocol. There was a significant difference in DI (F6,43=6.097, p<0.001, n=6-8 mice/group). **p<0.01, ***p<0.001 vs vehicle group (SH), one-way ANOVA with Fisher's LSD post hoc comparison.
The apparatus used in this experiment was the same as ORT test. This experiment was divided into 2 parts directed to dose finding and establishing mechanism of action.
For dose finding protocol, the mice were randomly divided into different treatment groups, a control group receiving a vehicle and tested groups receiving PNU-282987 at 3, 10 mg/kg, and IND8, QND8 for 10, 25 μmol/kg, single dose. They were allowed to freely explore the open field apparatus for 5 min for habituation in a day before the experiment (day 1). On the test day (day 2), the test compound was injected 1 h before the sample phase. In this phase, mice were placed in the apparatus to explore two identical objects. On the next day (day 3), one object was changed to a new one and mice were allowed to explore these objects for 5 min in the test phase. For proving cognitive enhancement mediated through α7-nAChRs, the protocol was the same as mentioned above except MLA (3 mg/kg), selective α7-nAChR antagonist, was injected 5 min before test compounds in the sample phase (day 2) to block the cognitive enhancement effect from test compounds. The dose of test compounds is selected from the effective dose from the former experiment. The exploration time of each object was recorded if the nose of mouse came within 3 cm or touched the objects. The discrimination index (DI) was calculated by using (TN−TF)/(TN+TF); TN and TF represented exploration time of new and familiar objects, respectively.

[7] = functional screening and characterization

| SMILES | Initial screening for binding to α4β2-nAChRs (α4β2-nAChRs [1]) | Fold increase of Kd (α7-nAChRs) compared to IND8 [2] | Kd ([2]; read-out: Kd ± SD, α7-nAChRs, >10 = did not pass initial screen at 10 μM) | EC50 (5HT3A receptors [3]) | Kd (α4β2-nAChRs [4]; Antagonist KA ± SD, α4β2, competitive antagonist (^C), >10 = did not pass initial screen, vs (±)-epibatidine) | Functional properties at α4β2-nAChRs (agonist / antagonist, type) (α4β2-nAChRs [4]) | Kd (α4β2-nAChRs [4]; read-out: Antagonist KA ± SD, α4β2, non-competitive) | EC50 (α7-nAChRs) | Initial screening for binding to 5HT3A receptors (5HT3A receptors [5]) | Initial screening for binding to α7-nAChRs ([2]; 10 μM, more than 50% radioligand displacement) | Kd (5HT3A receptors [3]; competitive antagonist (^C), >10 = did not pass initial screen, vs 5-HT, read-out: Antagonist KA ± SD, 5HT3A) | Functional properties at 5HT3A receptors (agonist / antagonist, type) (5HT3A receptors [3]; [7]) | Kd (α4β2-nAChRs [4]; read-out: Antagonist KA ± SD, α4β2) | Functional properties at α7-nAChRs (agonist / antagonist) (α7-nAChRs; [7]) | Discrimination index / cognition enhancement, ORT time delay vs control group [6] |
| --- | --- | --- | --- | --- | --- | --- | --- | --- | --- | --- | --- | --- | --- | --- | --- |
| Cn1ccc2cc(-c3cn(C4CN5CCC4CC5)nn3)ccc21 (stereo not shown) [QND9, 3-(4-(1-Methyl-indol-5-yl)-1,2,3-triazol-1-yl)quinuclidine] | associate well with α4β2-nAChRs | 15 fold | 1880 nM | 1380 ± 520 nM | 5.2 ± 1.2 µM | mix-competitive antagonist | 6.5 ± 0.2 µM | 1000 ± 40 nM |  |  |  |  |  |  |  |
| c1ccc(-c2ccc(-c3cn(CCN4CCCCC4)nn3)cc2)cc1 [PPRD7, 1-(2-(4-(Biphenyl-4-yl)-1,2,3-triazol-1-yl)ethyl)piperidine] | cannot bind to all tested LGIC receptors |  |  | > 10000 nM |  | did not pass the functional screening |  | > 10000 nM | cannot bind to all tested LGIC receptors | cannot bind to all tested LGIC receptors | > 10 µM | did not pass the functional screening | > 10 µM | did not pass the functional screening |  |
| CCN1C[C@]2(COC(=O)c3ccccc3N3C(=O)C[C@H](C)C3=O)CC[C@H](OC)[C@@]34[C@@H]5C[C@H]6[C@H](OC)[C@@H]5[C@](O)(C[C@@H]6OC)[C@@](O)([C@@H](OC)[C@H]23)[C@@H]14 [MLA, methyllycaconitine, reference compound] |  |  |  |  |  |  |  |  |  |  |  |  |  |  | does not enhance episodic memory; also recorded: did not have cognitive enhancement effect |
